Measured values from patent publication US20030162972A1, “Pyridyl alkane acid amides as cytostatics and immunosupressives” (Klinge Pharma GmbH, priority 1996, published 2003).

Assays:
HepG2 cells = test: Growth inhibition of HepG2 cells, six days of substance incubation, sulforhodamin-B protein determination; assay type: cell-based; conditions: Homo sapiens, 144 h
Procedure: (§1) HepG2 cells plated at a density of 20,000 cells/ml in 12-well plastic dishes. Cultivation occured in Richters IMEM-ZO nutrient medium with 5% fetal calf serum (FCS) in a tissue culture incubator with a gas mixture of 5% CO2 and 95% air at a temperature of 37° C. One day after planting, the culture medium was aspirated from the cells and replaced by fresh medium which contained the respective concentrations of the test substances. For the individual concentrations and the controls without test substances, three-fold batches were done for each. Three days after the beginning of treatment, the medium was again renewed with the test compounds. After six days of substance incubation, the test was ended and the protein amount in the individual wells was determined with the sulforhodamin-B-method (according to P. Skehan et al: New Colorimetric Cytotoxicity Assay for Anticancer-Drug Screening. J. Natl. Cancer Inst. 82:1107-1112, 1990). The IC50-values (defined as that concentration in which the cell growth was inhibited by 50%) was taken from the dose-response curves and given as a comparative measurement for the activity of the test compounds.

[1] = tested on: various human tumor cells; test: In vitro activity of compound Nr. 54 on various human tumor cells; assay type: cell-based
Procedure: as §1
The compounds of formula (I) and their salts permit a therapeutic use in malignant illnesses of humans and animals through their excellent inhibition of the growth of tumor cells. The anti-neoplastic activity of the described substances can be used for prophylactic, adjunct, palliative, and curative treatment of solid tumors, leukemic illnesses and lymphomas as well as for decreasing or preventing metastasis formation in humans and animals. The therapeutic use is possible in the following illnesses for example: gynecological tumors, such as of the uterus or the vagina, ovarian carcinomas, testicle tumors, prostate carcinomas, skin cancer, kidney cancer, bladder tumors, esophagus carcinomas, stomach cancer, rectal carcinomas, pancreas carcinomas, thyroid cancer, adrenal tumors, leukemia and lymphomas, such as Hodgkin's disease, tumor illnesses of the CNS, soft-tissue sarcomas, bone sarcomas, benign and malignant mesotheliomas, but especially intestine cancer, liver cancer, breast cancer, bronchial and lung carcinomas, melanomas, acute and chronic leukemias. Thereby, benign papillomatosis tumors are also considered for therapy. The broad activity of the new compounds was tested in vitro on various human tumor cells Thereby, the following IC50 values were obtained for compound Nr.

[2] = tested on: freshly isolated lymphocytes; test: Immunosuppressing activity: vitality of freshly isolated spleen lymphocytes after 2 days, flow-through cytometry (propidium iodide / 3,3'-dihexyloxacarbocyanin iodide); assay type: cell-based; conditions: Lymphocyte, 48 h; Swiss mouse spleen lymphocytes, vital cells after 2 days, flow-through cytometer
From the text: Many anti-tumor agents have not only a cytotoxic effect on tumor cells, but also on the blood cell system. This leads to a weakening of the immune defence, which can, in turn, be specifically employed to suppress the rejection reaction after an organ transplantation for example. Therefore, a use of the main compounds, optionally in combination with other compounds effective for these indications is suitable in diseases such as psoriasis or autoimmune diseases. In order to test the possibility for a therapeutic use in illnesses of this type, the substance activity was tested on freshly isolated lymphocytes as follows: […]
The cells were plated at a density of ca. 500,000 cells/well/ml in a 12-well plate, 1 ml doubly concentrated test substance solution was pipetted per well and this was subsequently incubated in a tissue culture incubator at 37° C. and 5% CO2. […] Subsequently, 10,000 cells per each sample were measured on a flow-through cytometer and the percentage amount of vital cells in the population was determined. By means of the dose-response curves, IC50-values were calculated which were also employed in the following Tables for the characterization of the individual substances: […]

SMILES | IC50 (HepG2 cells) [nM] | melting point [°C] | further results
O=C(CCc1cccnc1)NCCCCC1CCN(C(c2ccccc2)c2ccccc2)CC1 [Substance 54, N-[4-(1-diphenylmethyl-piperidin-4-yl)-butyl]-3-(pyridin-3-yl)-propionamide] | 20 |  | IC50 ([1]; MCF7, cell line MCF-7, ER-positive mammacarcinoma): 80 nM; IC50 ([1]; cell line HT-29, colon carcenoma): 80 nM; IC50 ([1]; cell line HepG2, hepatocellular carcinoma): 20 nM; IC50 ([1]; cell line Namalwa, Burkitt's lymphoma): 50 nM; IC50 ([1]; cell line Saos-2, osteosarcoma): 20 nM; IC50 ([1]; cell line THP-1, monocytic leukemia): 30 nM; IC50 [2]: 3 nM
CCN(CCCCC1CCN(C(c2ccccc2)c2ccccc2)CC1)C(=O)CCc1cccnc1 [Substance 68, N-[4-(1-diphenylmethyl-piperidin-4-yl)-butyl]-N-ethyl-3-(pyridin-3-yl)-propionamide] |  | 72 to 74 | 
O=C(COc1cccnc1)NCCCCC1CCN(C(c2ccccc2)c2ccccc2)CC1 [Substance 84, N-[4-(1-diphenylmethyl-piperidin-4-yl)-butyl]-2-(pyridin-3-yloxy)-acetamide] | 80 | 103 to 105 | 
O=C(CCc1cccnc1)NCCCCCC1CCN(C(c2ccccc2)c2ccccc2)CC1 [Substance 101, N-[5-(1-diphenylmethyl-piperidin-4-yl)-pentyl]-3-(pyridin-3-yl)-propionamide] | 30 | 112 to 114 | 
O=C(CCc1cccnc1)NCCCCNC(=O)C1CCCN(C(c2ccccc2)c2ccccc2)C1 (stereo not drawn) [Substance 106, N-[4-(1-diphenylmethyl-piperidin-3-yl-carbonylamino)-butyl]-3-(pyridin-3-yl)-propionamide] |  | 159 to 161 | 
O=C(CCc1cccnc1)NCCCCC1CCN(C(=O)c2ccccc2)CC1 [Substance 162, N-[4-(1-benzoylpiperidin-4-yl)-butyl]-3-(pyridin-3-yl)-propionamide] |  | 72 to 74 | 
